Measurements from patent publication US12161694B2, “Methods and compositions for regulating innate lymphoid cell inflammatory responses” (The Broad Institute, Inc., priority 2017, dated 2024).
“Also recorded” adds a separate entry of the source. Where no end group is shown, it is not given here.

What was measured:
eosinophils = assay: Eosinophils in lung parenchyma and BALF after in vivo treatment (flow cytometry); parameters: species or system mouse
Method: (§1) Mice and in vivo ILC activation. C57Bl/6J mice were purchased from the Jackson Laboratory. Nmur1-LacZ reporter mice with a LacZ cassette knocked into the Nmur1 locus were rederived from Nmur1^tm1.1(KOMP)Vleg sperm obtained from the trans-NIH Knock-Out Mouse Project (KOMP) Repository. Mice were housed under specific-pathogen-free conditions. For experiments, mice were matched for sex and age, and most mice were 6-10 weeks old. […] The total administered volume was 20 μl for all conditions. Mice were randomly assigned to treatment groups after matching for sex and age. […] Mice were treated intranasally with 10 μg HDM on day 0, 7, 8, and 9, prior to sacrifice on day 10. All experiments were conducted in accordance with animal protocols approved by the Harvard Medical Area Standing Committee on Animals or BWH IACUC.
Flow cytometry. […] Cells were stained on ice with antibodies for surface molecules and the live/dead marker 7AAD and analyzed on a LSRFortessa (BD Biosciences). […]
Lung analysis. […] BALF was centrifuged, and the supernatant was used for analyzing cytokine levels and the cell pellet was resuspended, counted, and used for flow cytometry. […] Where indicated, cells were diluted in 10% Trypan Blue and viable cells counted using a hemocytometer. […]

[1] = tested on: IL-5 and IL-13 in lung and BALF; assay: In vivo ILC activation (intranasal), lung analysis: Il5, Il13, Il17rb mRNA in lung mononuclear cells (qPCR), IL-5/IL-13 in BALF (LegendPlex); parameters: species or system mouse
Method: as §1
Lung analysis. Mice were sacrificed and perfused with cold PBS. Where indicated, after perfusion, broncho alveolar lavage (BAL) was obtained by injecting 1.5 ml cold PBS into the lungs via a secured tracheal cannula. BALF was centrifuged, and the supernatant was used for analyzing cytokine levels and the cell pellet was resuspended, counted, and used for flow cytometry. Following BAL, lung lobes were dissected. The post-caval lobe was fixed in buffered formalin for histological analysis. Single cell suspensions of the remaining lung parenchymal tissue were prepared with the GentleMACS lung dissociation kit (Miltenyi Biotec) according to the manufacturer's instructions. Where indicated, cells were diluted in 10% Trypan Blue and viable cells counted using a hemocytometer.
Quantitative real-time PCR. RNA was isolated using RNeasy Plus Mini Kit (Qiagen) and reverse transcribed to cDNA with iScript cDNA Synthesis Kit (Bio-Rad). Gene expression was analyzed by quantitative real-time PCR on a ViiA7 System (Thermo Fisher Scientific) using TaqMan Fast Advanced Master Mix (Thermo Fisher Scientific) with the following primer/probe sets: IL-5 (Mm00439646_m1), IL-13 (Mm00434204_m1), IL-17RB (Mm00444709_m1), Nmur1 (Mm04207994 m1), Nmur2 (Mm00600704_m1), and β-Actin (Applied Biosystems). Expression values were calculated relative to β-Actin detected in the same sample by duplex qPCR.
Cytokine quantification. Cytokine concentrations in BAL fluid, lung and supernatant of in vitro ILC cultures were analyzed by the LegendPlex Mouse Th Cytokine Panel (13-plex) (BioLegend) according to the manufacturer's instructions and analyzed on a FACS Calibur (BD Biosciences).
Mice and in vivo ILC activation. C57Bl/6J mice were purchased from the Jackson Laboratory. Nmur1-LacZ reporter mice with a LacZ cassette knocked into the Nmur1 locus were rederived from Nmur1^tm1.1(KOMP)Vleg sperm obtained from the trans-NIH Knock-Out Mouse Project (KOMP) Repository. NMU-deficient mice (NMU-KO) were rederived from B6.129S2-Nmu<tm1Mko> embryos from the RIKEN BioResource Center. For experiments with Nmur1-LacZ (Nmur1-KO) and NMU-KO mice, littermates that were either homozygous or heterozygous for the wild type allele were used as controls. Mice were housed under specific-pathogen-free conditions. For experiments, mice were matched for sex and age, and most mice were 6-10 weeks old. […] The total administered volume was 20 μl for all conditions. Mice were randomly assigned to treatment groups after matching for sex and age. […]
Lung analysis. […] BALF was centrifuged, and the supernatant was used for analyzing cytokine levels and the cell pellet was resuspended, counted, and used for flow cytometry. […]

In the case of “Neuromedin U (FRVDEEFQSPFASQSRGYFLFRPRN-NH2; listed as Homo sapiens) [NMU, neuropeptide ligand of Nmur1 (US Biological)]”, the “eosinophils in BALF” value (eosinophils; intranasal daily for 3 days (500 ng IL-25, 20 μg NMU)) is reported as “only a mild increase; also recorded: small increase”, the “eosinophils in lung parenchyma” value (eosinophils; intranasal daily for 3 days (500 ng IL-25, 20 μg NMU; FIG. 11: 250 ng IL-33, 10 μg NMU)) is reported as “did not increase” and the “IL-33-induced lung inflammation with NMU” value ([1]; 250 ng IL-33 and 10 μg NMU (FIG. 11)) is reported as “little impact; also recorded: does not significantly amplify”. The “allergic lung inflammation induced by the substance alone” value ([1]; NMU 20 μg intranasally for 3 consecutive days, no alarmin) was “little effect; also recorded: minimal”, the “IL-5 protein in BALF” value ([1]; NMU alone 20 μg intranasally for 3 days, LegendPlex) was “only trace quantities” and the “IL-25-induced allergic airway inflammation with NMU” value ([1]; NMU co-administered with IL-25) was “dramatically enhanced; also recorded: amplifies”. For the same substance, the “Il5 and Il13 mRNA expression in lung (lung mononuclear cells)” value ([1]; intranasal daily for 3 days (500 ng IL-25, 20 μg NMU), qPCR) was “did not cause a significant increase”.
